According to US4451477A, “Bendazac treatment of cataract” (Aziende Chimiche Riunite Angelini Francesco A.C.R.A.F. …, priority 1981, dated 1984):
Where “and” joins values, the source holds several entries; their conditions need not be identical. Equal values may be shown once. Entries after “also recorded” stand apart in the source; their conditions may differ. Where a name gives a salt, the structure may show the parent alone. Read-outs that look alike come from different tables or passages of the source.

Tests used:
lens homogenate = assay: heat-induced denaturation of lens homogenate (60° C., 20 min, nephelometric); assay type: biochemical, rat; conditions: for % inhibition of heat-induced denaturation of lens homogenate: 60° C., 20 min, pH 7.5
Description: (§1) Experiments in vitro: A study was performed on both lens homogenates and intact lens. The opacification of this material was obtained by heating. For this purpose the same method as that already employed to study blood proteins was used (Silvestrini et al., 1968; Silvestrini et al., 1970) with some minor modifications which are reported below.
(§2) For the study of the homogenate, fresh rat lens were used which has been removed from the capsule, immersed in phosphate buffer (pH 7.5; 0.1M) in the volumetric ratio of 15:85 and then homogenated. The homogenate was then centrifuged (10 minutes at 4000 r.p.m.), the supernatant was collected and further diluted 1:1 with the above phosphate buffer, alone or containing bendazac at different concentrations. The solution thus obtained was heated at 60° C. for 20 minutes and the denaturation was assessed nephelometrically. As reference a comparison is made with the values obtained with bovine serum albumin (BSA) denaturation.
(§3) The experiment was repeated using different salts of bendazac including lithium, sodium, potassium, ammonium, organic bases (such as ethylenediamine, piperazine and diisopropylamine) and lysine. […] This experiment proves that the active ingredient is bendazac. The intact lens was studied by using fresh bovine lens which were kept for 2 hours in the phosphate buffer described above, either alone or containing bendazac at different concentrations. The lenses were then heated at 50° C. for 120 minutes; this procedure produced a clear-cut opacification in the subcapsular region. The degree of opacification was assessed blindly (the experimentor was unaware of the treatment), using a score from 0 to 4.

cataract [1] = conditions: literature, cited from earlier work
blood proteins = conditions: literature; cited from earlier work
[2] = cited from earlier work
[3] = biological target: bovine serum albumin (BSA) (Bos taurus, UniProt P02769); assay: heat-induced denaturation of bovine serum albumin (BSA); assay type: biochemical
Description: as §2, with “Experiments in vitro: A study was performed on both lens homogenates and intact lens. The opacification of this material was obtained by heating. For this purpose the same method as that already employed to study blood proteins was used (Silvestrini et al., 1968; Silvestrini et al., 1970) with some minor modifications which are reported below. For” for “For”

isolated bovine lenses = assay: heat-induced opacification of isolated intact bovine lenses (50° C., 120 min, blind score); conditions: same molar concentrations for salts
Description: as §1, §3
The test was repeated using the various salts of bendazac mentioned above and in this case also with the same molar concentrations the results obtained were identical to those observed with bendazac alone.

[4] = oral absorption in man, serum concentration after single oral administration; assay type: in vivo, human; conditions: for concentration at 2 h: human, serum
From the text: These blood levels appeared too low to obtain therapeutic activity.

cataract [5] = assay: second experiment: double blind placebo-controlled anti-cataract study in patients, oral; assay type: in vivo, human; parameters: key to Vision / Refraction / Overall Judgement / Slit-lamp / Transillumination: +: improvement; 0: no change; -: worsening
Description: (§4) A first experiment was conducted on 24 patients with different types of cataract (cortical; corticonuclear, posterior subcapsular). […] The experiment included an examination of vision, refraction and slit-lamp test; the investigator was asked to express an overall judgement. These evaluations were performed before the beginning of treatment, after 4 weeks and again at the end of treatment when prolonged. The lysine salt of bendazac was administered at the dose of 1500 mg (corresponding to […] of bendazac) divided into three daily administrations during meals. The average duration of treatment was 50.4 days with time limits from 28 to 86 days. The study group consisted of 11 females and 13 males with an average age of 59.5 (47-74). The effects of treatment are summarized in Table 3; the values obtained in each patient are illustrated instead in Table 4. For practical purposes the results are expressed as: improvement (+), no change (0), worsening (-).
As a result of these encouraging results we decided to repeat the experiment under double blind conditions comparing the lysine salt of bendazac with placebo. A total of 35 patients were used; 19 were treated with placebo and 16 with the lysine salt of bendazac. The experimental methods used were identical to those described in the first experiment except for the duration of treatment which was always 4 weeks.

cataract [6] = assay: first experiment: anti-cataract activity in 24 patients, oral; assay type: in vivo, human; parameters: key to Vision / Refraction / Slit-lamp and/or transillumin. / Overall Judgement: +: improvement; 0: no change; -: worsening
Description: as §4

cataract [7] = assay: eye drops instilled in 4 patients with cataract; assay type: in vivo, human; conditions: topical, eye drops 3 times daily for one month
Description: Finally, bendazac was administered in 4 patients in the form of eye drops containing 0.25% of the lysine salt of bendazac. Eye drops were instilled 3 times daily for one month.

[8] = drug molar concentration 5 × 10^-4
[9] = 16 patients, 4 weeks, double blind, placebo (19) 1
[10] = 16 patients, 4 weeks, double blind, placebo (19) 2
[11] = 16 patients, 4 weeks, double blind, placebo (19) --
[12] = individual patient, one per line of Table 6, 4 weeks, oral, listed as bendazac L, (dihydrate)
[13] = 24 patients, 1500 mg daily oral, Table 3 summary
[14] = individual patient, one per line of Table 4, 1500 mg daily oral, 28-86 days, (dihydrate)

bovine serum albumin (BSA), sequence (P02769 25-607): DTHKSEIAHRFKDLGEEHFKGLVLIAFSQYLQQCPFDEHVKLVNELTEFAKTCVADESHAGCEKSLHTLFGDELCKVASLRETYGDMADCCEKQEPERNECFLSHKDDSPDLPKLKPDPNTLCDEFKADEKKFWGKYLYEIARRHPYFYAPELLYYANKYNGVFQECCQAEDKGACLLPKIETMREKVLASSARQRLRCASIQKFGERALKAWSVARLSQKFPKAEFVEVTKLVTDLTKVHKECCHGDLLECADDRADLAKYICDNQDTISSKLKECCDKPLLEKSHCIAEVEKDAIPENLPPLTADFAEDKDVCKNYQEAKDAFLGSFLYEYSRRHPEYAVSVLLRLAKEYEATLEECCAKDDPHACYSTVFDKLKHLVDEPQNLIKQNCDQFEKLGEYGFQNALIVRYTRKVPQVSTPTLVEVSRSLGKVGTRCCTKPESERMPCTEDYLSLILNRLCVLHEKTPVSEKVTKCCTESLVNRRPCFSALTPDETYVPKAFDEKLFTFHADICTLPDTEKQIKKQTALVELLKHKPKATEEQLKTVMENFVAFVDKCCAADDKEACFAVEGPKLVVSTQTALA

SMILES: O=C(O)COc1nn(Cc2ccccc2)c2ccccc12
- anti-denaturant effect on the lens homogenate compared with bendazac alone (lens homogenate; at the same molar concentrations): the same anti-denaturant effect on the lens homogenate as that of bendazac alone

SMILES: O=C(O)c1cc(O)c2c3nc4ccccc4oc-3cc(=O)c2n1 [Catalin, 1-hydroxy-5-oxo-5H-pyrido[3,2-a]phenoxazino-3-carboxylic acid]
- effect on cataract development (words) (cataract [1]): possible slowdown in cataract development

SMILES: CC(=O)Oc1ccccc1C(=O)O [aspirin, acetylsalicylic acid]
- effect on cataract development (words) (cataract [1]): possible slowdown in cataract development
- effect on cataract development (words) (cataract [1]; listed as acetylsalicylic acid): delays the development of cataract but does not determine its regression

SMILES: O=C(O)COc1nn(Cc2ccccc2)c2ccccc12 [bendazac, [(1-benzyl-1H-indazol-3-yl)oxy]acetic acid]
- anti-denaturant activity on proteins (blood proteins): very specific anti-denaturant activity on some blood proteins
- oral absorption in humans ([2]; Silvestrini et al.): rather low; also recorded: too low
- blood levels ([2]; following 8 days of treatment at increasing doses from 150 to 900 mg daily, humans): 8 µg
- inhibition at 500 µM [3, 8]: 47%
- inhibition at 1000 µM ([3]; drug molar concentration 10^-3): 60%
- inhibition at 100 µM ([3]; drug molar concentration 10^-4): 12%
- protective effect on heat-induced denaturation of lens homogenate (lens homogenate; compared with BSA): prevents heat-induced denaturation of lens homogenate and that this protective effect is similar to that observed with BSA
- % inhibition of heat-induced denaturation of lens homogenate (lens homogenate; [8]): 32%
- % inhibition of heat-induced denaturation of lens homogenate (lens homogenate; drug molar concentration 10^-3): 68%
- % inhibition of heat-induced denaturation of lens homogenate (lens homogenate; drug molar concentration 10^-4): 18%
- protective effect on lens opacification in vitro (words) (isolated bovine lenses): protective action in vitro with respect to lens opacification
- protective effect on lens opacification in vitro (words) (isolated bovine lenses; listed as Bendazac): clearcut protective effect on this experimentally induced cataract
- concentration at 2 h ([4]; 300 mg of bendazac alone, oral, under the same conditions, read-out: serum levels): 8000 ng/mL

SMILES: O=C(O)COc1nn(Cc2ccccc2)c2ccccc12 [lysine salt of bendazac, Salt of [(1-benzyl-1H-indazol-3-yl)oxy]acetic acid with L. lysine (dihydrate)]
- Overall Judgement: worsening (-), number of patients (cataract [5]; 16 patients, 4 weeks, double blind): 2
- Overall Judgement: improvement (+), number of patients (cataract [5]; [9]): 11
- Refraction: improvement (+), number of patients (cataract [5]; [9]): 9
- Transillumination: no change (0), number of patients (cataract [5]; [9]): 2
- Vision: improvement (+), number of patients (cataract [5]; [9]): 10
- Overall Judgement: no change (0), number of patients (cataract [5]; [10]): 3
- Slit-lamp: no change (0), number of patients (cataract [5]; [10]): 2
- Vision: no change (0), number of patients (cataract [5]; 16 patients, 4 weeks, double blind, placebo (19) 6): 6
- Slit-lamp: worsening (-), number of patients (cataract [5]; 16 patients, 4 weeks, double blind, placebo (19) 9): 1
- Refraction: no change (0), number of patients (cataract [5]; 16 patients, 4 weeks, double blind, placebo (19) 12): 7
- Slit-lamp: improvement (+), number of patients (cataract [5]; [11]): 10
- Transillumination: improvement (+), number of patients (cataract [5]; [11]): 4
- Overall Judgement (cataract [5]; [12]): 0 and + and -
- Refraction (cataract [5]; [12]): 0 and +
- Slit-lamp (cataract [5]; [12]): + and 0 and -
- Transillumination (cataract [5]; [12]): + and 0
- Vision (cataract [5]; [12]): 0 and +
- effect on cataract (cataract [5]; oral administration, patients, (dihydrate)): healing effect on cataract; also recorded: induces a regression of the disease
- Overall Judgement: improvement (+), number of patients (cataract [6]; [13]): 18
- Overall Judgement: no change (0), number of patients (cataract [6]; [13]): 5
- Overall Judgement: worsening (-), number of patients (cataract [6]; [13]): 1
- Refraction: improvement (+), number of patients (cataract [6]; [13]): 10
- Refraction: no change (0), number of patients (cataract [6]; [13]): 13
- Refraction: worsening (-), number of patients (cataract [6]; [13]): 1
- Slit-lamp and/or Transillum.: improvement (+), number of patients (cataract [6]; [13]): 14
- Slit-lamp and/or Transillum.: no change (0), number of patients (cataract [6]; [13]): 10
- Vision: improvement (+), number of patients (cataract [6]; [13]): 18
- Vision: no change (0), number of patients (cataract [6]; [13]): 6
- number of patients with improvement (cataract [6]; depending on the evaluation method): 10-18 patients
- number of patients with relatively poor results (cataract [6]; first experiment, 24 patients): 5 patients
- number of patients with worsening effect (cataract [6]; first experiment, 24 patients): 1 patient
- Overall Judgement (cataract [6]; [14]): + and - and 0
- Refraction (cataract [6]; [14]): + and 0 and -
- Slit-lamp and/or transillumin. (cataract [6]; [14]): + and 0
- Vision (cataract [6]; [14]): + and 0
- concentration at 2 h ([4]; 2 hours after single oral administration of 500 mg lysine salt (= 303.8 mg bendazac), 6 volunteers, read-out: mean serum concentration): 30000 ng/mL
- oral absorption in man ([4]; lysine salt vs bendazac alone, (dihydrate)): good oral absorption; also recorded: better absorbed in man than bendazac alone
- effect on cataract (cataract [7]): induces a regression of the disease
